Series [1] in a line: Inhibition of mouse EGFR V769_D770insASV mutant stably expressed in mouse BaF3 cells assessed as cell viability incubated for 3 days by Cell Titer-Glo assay. It is filed as cell-based. The conditions noted are these: BaF3, 72 h.
Series [2] addresses Epidermal growth factor receptor (Homo sapiens, UniProt P00533). As to the kind of experiment: Inhibition of […]-induced EGFR phosphorylation in human A549 cells pretreated for 2 hrs followed by EGF stimulation by immune assay. It is filed as cell-based.
Series [3] can be described thus: Inhibition of mouse EGFR D770_N771insNPG mutant stably expressed in mouse BaF3 cells assessed as cell viability incubated for 3 days by Cell Titer-Glo assay. The conditions noted are these: BaF3, 72 h. It is filed as cell-based. (ATP-based viability assays read luminescence as a measure of living cells.)
Series [4] in a line: AUClast in CD-1 mouse at 10 mg/kg, po by LC/MS/MS analysis. It is filed as ADME, organism-based. More on the design: dose 10 mg/kg, route po. The conditions noted are these: in vivo.
Series [5] can be described thus: Cmax in CD-1 rat at 10 mg/kg, po by LC/MS/MS analysis. It is filed as ADME, organism-based. Also noted: dose 10 mg/kg, route po. The conditions noted are these: in vivo.
A short description of series [6]: Cmax in CD-1 mouse at 10 mg/kg, po by LC/MS/MS analysis. It is filed as ADME, organism-based. More on the design: dose 10 mg/kg, route po. The conditions noted are these: in vivo.
Series [7] deals with BaF3. Put plainly: In vivo antitumor activity against mouse BaF3 cells expressing EGFR exon 20 insertion (ex20ins) ASV implanted in SCID mouse assessed as tumor growth inhibition at 100 mg/kg, po administered for 7 consecutive days. It is filed as functional. The conditions noted are these: BaF3, 168 h, time 7 day, read-out: TGI.
Series [8] is described as follows: AUClast in CD-1 rat at 10 mg/kg, po by LC/MS/MS analysis. Also noted: dose 10 mg/kg, route po. The conditions noted are these: in vivo. It is filed as ADME, organism-based.
Series [9] deals with BaF3. Put plainly: In vivo antitumor activity against mouse BaF3 cells expressing EGFR exon 20 insertion (ex20ins) ASV implanted in SCID mouse assessed as tumor regression at 100 mg/kg, po administered for 7 consecutive days. It is filed as functional. As to conditions: time 7 day.
In series [10] the test system is BaF3. Put plainly: In vivo antitumor activity against mouse BaF3 cells expressing EGFR exon 20 insertion (ex20ins) ASV implanted in SCID mouse assessed as tumor growth inhibition at 50 mg/kg, po administered for 7 consecutive days. As to conditions: 168 h, time 7 day, read-out: TGI. It is filed as functional.
The nature of series [11]: AUC (0 to last)in CD rat at 5 mg/kg, po by LC/MS/MS analysis. Also noted: dose 5 mg/kg, route po. The conditions noted are these: in vivo. It is filed as ADME, organism-based.
A short description of series [12]: Cmax in CD rat at 5 mg/kg, po by LC/MS/MS analysis. It is filed as ADME, organism-based. More on the design: dose 5 mg/kg, route po. As to conditions: in vivo.

Consider three molecules from ChEMBL document CHEMBL5236603, “Discovery of mobocertinib, a potent, oral inhibitor of EGFR exon 20 insertion mutations in non-small cell lung cancer” (Bioorg Med Chem Lett, 2023).

The structures appear in SMILES notation.

Epidermal growth factor receptor, sequence (P00533 whole entry): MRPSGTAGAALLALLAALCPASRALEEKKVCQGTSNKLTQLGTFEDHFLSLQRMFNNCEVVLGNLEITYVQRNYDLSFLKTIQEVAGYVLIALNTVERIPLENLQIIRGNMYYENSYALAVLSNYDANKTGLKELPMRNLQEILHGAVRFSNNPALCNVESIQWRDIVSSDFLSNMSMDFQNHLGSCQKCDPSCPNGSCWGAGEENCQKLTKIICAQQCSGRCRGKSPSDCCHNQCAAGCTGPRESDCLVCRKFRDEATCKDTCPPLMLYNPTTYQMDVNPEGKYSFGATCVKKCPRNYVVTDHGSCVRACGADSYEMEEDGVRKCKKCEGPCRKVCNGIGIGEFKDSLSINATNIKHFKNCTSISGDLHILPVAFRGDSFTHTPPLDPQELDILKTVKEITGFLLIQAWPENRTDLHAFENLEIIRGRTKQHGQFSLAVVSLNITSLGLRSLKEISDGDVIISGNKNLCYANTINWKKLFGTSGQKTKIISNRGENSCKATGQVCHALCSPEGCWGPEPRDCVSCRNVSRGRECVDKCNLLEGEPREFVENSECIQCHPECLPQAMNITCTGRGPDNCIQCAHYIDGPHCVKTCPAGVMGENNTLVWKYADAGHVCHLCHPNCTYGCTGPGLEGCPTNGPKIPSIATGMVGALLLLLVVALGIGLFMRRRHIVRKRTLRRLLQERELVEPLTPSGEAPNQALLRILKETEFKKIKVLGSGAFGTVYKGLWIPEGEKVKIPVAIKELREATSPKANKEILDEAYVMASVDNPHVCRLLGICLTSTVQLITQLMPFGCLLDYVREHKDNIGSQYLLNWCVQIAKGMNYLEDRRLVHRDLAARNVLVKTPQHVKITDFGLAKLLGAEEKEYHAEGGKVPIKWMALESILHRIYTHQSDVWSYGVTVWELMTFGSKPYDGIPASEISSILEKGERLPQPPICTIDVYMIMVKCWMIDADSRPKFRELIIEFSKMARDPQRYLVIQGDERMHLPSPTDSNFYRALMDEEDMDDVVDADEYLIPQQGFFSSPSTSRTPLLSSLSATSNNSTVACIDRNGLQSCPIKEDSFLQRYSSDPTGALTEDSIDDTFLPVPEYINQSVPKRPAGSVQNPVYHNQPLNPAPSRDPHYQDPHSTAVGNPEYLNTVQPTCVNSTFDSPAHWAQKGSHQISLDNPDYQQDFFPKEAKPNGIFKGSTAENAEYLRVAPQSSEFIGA

As a reminder, the IC50 is the concentration that gives 50% inhibition. By AUC(0-t) is commonly meant the area under the concentration-time curve up to a stated or last time point. Read a high AUC(0-t) as more exposure. Usually Cmax stands for the peak of the concentration-time curve. For `C=CC(=O)Nc1cc(Nc2ncc(C#N)c(-c3cn4c5c(cccc35)CCC4)n2)c(OC)cc1N(C)CCN(C)C`, the IC50 came out at 0.00938 µM in series [1], 0.035 µM in [2] and 0.00399 µM in series [3]. Also, the AUC(0-t) in series [4] amounted to 200 ng·h/mL; in series [8], 58 ng·h/mL. Besides, the Cmax in series [5] is 13 ng/mL; in [6], 29 ng/mL. Besides, the inhibition in vivo at 100 mg/kg with BaF3 [7] turned out to be 76%.
On to `C=CC(=O)Nc1cc(Nc2ncc(C(=O)OC(C)C)c(-c3cn(C)c4ccccc34)n2)c(OC)cc1N(C)C[C@H]1CCCN1C`, for which the 50% inhibitory concentration (IC50) was found to be 0.012 µM in [1], 0.043 µM in series [2] and 0.006 µM in series [3]. In the series with BaF3 [9], the Activity was -10%. Further, the AUC(0-t) was 294 ng·h/mL in series [4] and 323 ng·h/mL in series [8]. For the same molecule, the results for the Cmax in series [5] and in [6] were 40 ng/mL and 94 ng/mL, respectively. Also, the inhibition in vivo at 50 mg/kg in the series with BaF3 [10] is 72%.
Take `C=CC(=O)Nc1cc(Nc2ncc(-c3cnn(C)c3)c(-c3cn4c5c(cccc35)CCC4)n2)c(OC)cc1N(C)CCN(C)C`: the half-maximal inhibitory concentration (IC50) in series [1] was 0.016 µM; in series [2], 0.015 µM. In addition, the AUC(0-t) was 105 ng·h/mL in [4] and 853 ng·h/mL in [11]. Also, the Cmax was 90 ng/mL in series [12] and 59 ng/mL in [6].
